From patent publication US20190022101A1, “Treating Cochlear Synaptopathy” (Massachusetts Eye and Ear Infirmary, priority 2016, published 2019)
“Also recorded” adds a separate entry of the source.

Key:
[1] = tested on: isolated SGNs and denervated organ of Corti; test: Afferent synaptogenesis in co-culture of isolated SGNs and denervated organ of Corti; format: cell-based, mouse; conditions: P4/5 CBA/CaJ co-culture 6 days, amitriptyline 0.5 uM, vs untreated controls
Protocol: FIGS. 4A-B show amitriptyline induced cochlear afferent synaptogenesis. Isolated SGNs and denervated organ of Corti were extracted from P4/5 CBA/CaJ cochlea, the co-cultured for 6 days (see Brugeaud et al. (2014) Dev Neurobiol. April; 74(4):457-66 and Tong et al. (2013) J Assoc Res Otolaryngol. 14(3):321-9 for detailed methods). In some co-cultured explants, amitriptyline (AT; 0.5 uM) was added (4A, 4B). After culture, explants were fixed and immunostained with antibodies against neurofilament (green), CtBP2 (blue) and PSD-95 (red). Confocal images were taken in the IHC region. Newly generated afferent synapses were identified by juxtaposed CtBP2/PSD-95 puncta (yellow arrows).
The afferent innervation of hair cells is removed by physical ablation. At postnatal day four to six (P4-P6), the cochlea is dissected and transferred to Petri dishes. The inner and outer hair cells and surrounding supporting cells of the organ of Corti are separated from the SGN at the greater epithelial ridge with a surgical micro-blade, to obtain an intact sensory epithelium devoid of neurons. […] Formation of new synapses and growth of the fibers to contact hair cells is assessed by immunohistochemistry. […]

cochlear function = test: Cochlear function (ABR Wave 1, DPOAE) in vivo after synaptopathic noise exposure; set-up: species or system CBA/CaJ mice; conditions: vs saline-treated controls; for ABR Wave 1 amplitudes (neural response amplitudes): 52 wk / one year post noise
Protocol: (§1) Animals: Experiments were carried out in CBA/CaJ mice. CBA/CaJ is a useful reference for studies of both noise-induced and age-related hearing loss and to cochlear injury. […] J Assoc Res Otolaryngol. 2014 October; 15(5):721-38). With respect to aging, after normalizing for cochlear place and relative lifespan, the pace of age-related threshold elevation and SGN loss in CBA/CaJ looks remarkably like that seen in human data (Sergeyenko et al. (2013)). Thus, the strain is particularly appropriate to provide the optimization of bioassays and treatments for application to the human.
(§2) Noise Exposure: Noise exposure stimuli were generated by a waveform generator (Tucker-Davis WG1), bandpass filtered with >60 dB/octave slope (Frequency Devices), amplified (Crown D-75) and delivered (JBL compression driver) through an exponential horn extending into a small, reverberant exposure chamber. Exposures were delivered to awake animals held within small cells of a subdivided cage, one animal/cell, suspended directly below the horn of the sound-delivery loudspeaker. Noise calibration to target SPL was performed immediately before each exposure session. Sound pressure levels varied by <1 dB across all cells (Kujawa et al. (2006); Kujawa et al. (2009)).
Cochlear Function: Detailed techniques have been described in previous publications (Kujawa et al. (2006); Kujawa et al. (2009); Sergeyenko et al. (2013)). […]
Effects of noise on the cochlea and its interaction with age were assessed physiologically using outer hair cell-based distortion product otoacoustic emissions (DPOAEs) and neural-based auditory brainstem responses (ABRs, specifically, wave 1). Response thresholds and suprathreshold response growth functions were recorded in ketamine/xylazine-anesthetized mice. DPOAEs were measured in response to f1 and f2 primaries (f2/f1=1.2, f2=ABR test frequencies; L2=L1−10 dB). […] ABRs were recorded with 5 ms tone-pips (0.5 msec rise/fall, alternating polarity) for the same range of frequencies. Wave 1 thresholds and wave peak ratios were determined by custom offline analysis routines.

[2] = tested on: IHC synapses and spiral ganglion cells; test: Cochlear synapse and ganglion cell counts in vivo after synaptopathic noise exposure; set-up: species or system CBA/CaJ mice; conditions: for synapses / cochlear synaptic counts: one year (52 wk) after synaptopathic noise exposure
Protocol: as §1, §2
Cochlear Tissue Processing and Analysis: Techniques for cochlear fixation, dissecting and immunostaining are described in prior publications, as are techniques for quantification of pre- and post-synaptic structures in highpower confocal z-stacks (Kujawa et al. (2009); Sergeyenko et al. (2013)). Briefly, deeply anesthetized mice were intracardially perfused, both cochleae were extracted, and the round and oval windows opened to allow intra-labyrinthine perfusion of the same fixative. One cochlea was processed for immunostained cochlear whole mounts and the other for plastic embedding. We triple stained for pre-synaptic ribbons (CtBP2), post-synaptic glutamate receptors (GluA2) and/or cochlear nerve terminals (Na+K+ATPase); myosin VIIA aided hair cell visualization. […] High-power, confocal image stacks were obtained at evenly spaced locations along the cochlear spiral, including regions of lesion focus. Given the stereotyped sectioning angle, these locations correspond roughly to the 6, 12, 22, 32, 45 and 64 kHz regions. At each locus, high-NA (1.3) objectives were used to obtain a complete confocal z-stack through the synaptic zones of all IHCs and OHCs. In each field, hair cells were counted under DIC optics, and expressed pre- and post-synaptic elements on a per hair cell basis. For afferent innervation, synaptic ribbons were counted in IHC areas, and percentages of ribbons with closely apposing glutamate receptor patches or terminals assessed, aided by the use of Amira software to enable a true 3-D analysis of the volumes of immunostained structures, and custom software to isolate the voxel space around each structure of interest.
For quantification of spiral ganglion cells, cochleae were additionally postfixed, decalcified and osmicated and embedded in EPON in a stereotyped orientation. Plastic-embedded, osmium-stained sections (10 μm) were cut in a roughly horizontal plane parallel to the modiolus. In each case, ganglion cell counts were made in the section precisely in the middle of each half turn, where the cutting angle is perpendicular to the spiral of Rosenthal's canal, at regions corresponding to the synapse counts. In each selected section, the area of Rosenthal's canal is traced, the number of ganglion cells within was counted, including only those cells with a visible nucleus and nucleolus, and the cell density is computed (cells/10,000 μm^2). All morphological analyses were performed by an individual having no knowledge of animal age or treatment, with subsets double counted by a second individual as a check for consistency. […]

Spiral ganglion neurons = test: Spiral ganglion neurite growth in cultured explants; format: cell-based, mouse; conditions: P4 CBA/CaJ SGN explants, two days culture, neurofilament stain; imipramine 1 uM or 5 uM, BDNF 50 ng/ml; vs control
Protocol: Spiral ganglion neurons were isolated from P4 CBA/CaJ mouse cochlea and cultured with DMEM/F12 supplemented with N2 and B27 in a 37° C. incubator with 5% CO2 (control conditions)(FIG. 3A). For drug treatment, BDNF (50 ng/ml) (FIG. 3C) or imipramine (1 uM or 5 uM)(FIG. 3B or FIG. 3D) was added. Two days after culture, explants were immunostained with a neurofilament antibody.

CN(C)CCC=C1c2ccccc2CCc2ccccc21 [amitriptyline]
newly generated afferent synapses (juxtaposed CtBP2/PSD-95 puncta), synapse counts [1]: synaptogenesis; also recorded: new afferent synapses are generated
newly generated afferent synapses (juxtaposed CtBP2/PSD-95 puncta), synapse counts ([1]; listed as AT): greater in AT-treated than in untreated controls
ABR Wave 1 amplitudes (neural response amplitudes) (cochlear function): neural response amplitudes were larger
ABR Wave 1 amplitudes (neural response amplitudes) (cochlear function; listed as AT): larger in AT-treated ears
DPOAE amplitudes (cochlear function; 52 wk post noise): not DPOAE amplitudes (5C) were larger
period of post-drug efficacy ([2]; initial results, compared to short-lived benefit of exogenously-applied neurotrophins): long period of post-drug efficacy
synapses / cochlear synaptic counts ([2]; vs saline-treated controls): cochlear synaptic and ganglion cell counts were greater
synapses / cochlear synaptic counts ([2]; vs saline-treated controls, listed as AT): persisting to at least one year after synaptopathic exposure
ganglion cell counts ([2]; one year post excitotoxic noise, vs saline-treated controls): ganglion cell counts were greater
synapses ([2]; short post-exposure times, vs saline treated controls): more synapses than saline treated controls
effects with a single dose of drug ([2]; single dose, in vivo (FIG. 6)): could be seen even with a single dose of drug

CN(C)CCCN1c2ccccc2CCc2ccccc21 [imipramine]
spiral ganglion neurite growth (Spiral ganglion neurons): promoted spiral ganglion neurite growth in a dose-dependent manner; also recorded: dose-responsive dendritic sprouting

B1: brain derived neurotrophic factor (protein, UniProt P23560 19-247, looked up)
Neurotrophic factor BDNF …: APMKEANIRGQGGLAYPGVRTHGTLESVNGPKAGSRGLTSLADTFEHVIEELLDEDQKVRPNEENNKDADLYTSRVMLSSQVPLEPPLLFLLEEYKNYLDAANMSMRVRRHSDPARRGELSVCDSISEWVTAADKKTAVDMSGGTVTVLEKVPVSKGQLKQYFYETKCNPMGYTKEGCRGIDKRHWNSQCRTTQSYVRALTMDSKKRIGWRFIRIDTSCVCTLTIKRGR
spiral ganglion neurite growth (Spiral ganglion neurons): promoted neurite outgrowth
